Data reported in patent US9096494B2, “Arachidonic acid analogs and methods for analgesic treatment using same” (priority 2009, dated 2015).

Experiments:
[1] = Analgesic potency comparison with natural EETs and AM404; settings: in vivo
Description: Chemically, it is close structural analog of a set of lipid mediators derived from arachidonic acid that the body uses to control pain.

[2] = Intravenous analgesia: onset and duration of effect
mice [3] = test: Writhing assay in mouse (bolus and continuous infusion); format: in vivo
mice [4] = test: Tail-flick assay in mouse; format: in vivo
Experimental: The tail-flick assay is based on the time measured to reflex withdrawal of the tail in response to a radiant heat source. The maximum exposure time to the radiant heat source is set at 10 seconds. Prior to treatment, a baseline (BL) time measured to tail-flick withdrawal is determined after two exposures to the radiant source separated by a 30 min period. Control mice are intravenously treated with vehicle and test mice are intravenously treated with analgesic test compound. Data of tail-flick withdrawal of treated mice (TM) are calculated as maximum possible effect (MPE), where MPE=(TM−BL)/(10−BL). Tail-flick withdrawal is measured at 5 min, 15 min, 30 mm, and 1 hr. A total of 3-5 mice are used for each time point tested.

SMILES: CCCCCC1OC1C/C=C\C/C=C\C/C=C\CCCC(=O)O (stereo not shown) [14,15-EET, 14,15-EET (epoxyeicosatrienoic acid), reference compound]
- analgesic potency relative to natural EETs [1]: most potent analgesic of the natural EETs

SMILES: CN1CC[C@]23c4c5ccc(O)c4O[C@H]2[C@@H](O)C=C[C@H]3[C@H]1C5 [Morphine, morphine, reference compound]
- time to peak effect ([2]; animal tests): 15 to 40 min
- onset of analgesia after intravenous bolus injection or infusion ([2]; from the start of injection): 20 min
- duration of analgesic effect from bolus injection ([2]; intravenous bolus): 35 to 40 min
- continuous infusion dose producing roughly the same level of analgesia (roughly 50% MPE), writhing assay (mice [3]; mouse, in vivo): 1 mg/kg/h
- time over which analgesic levels are sustained by continuous infusion (mice [3]; mouse, in vivo): 24 h
- dose achieving 100% MPE, writhing assay (mice [3]; mouse, in vivo, iv): approximately 0.5 mg/kg
- time to maximal (full) analgesic response, tail-flick (mice [4]; 10 mg/kg intravenous bolus): 15 min
- dose needed in tail-flick assay relative to writhing assay for a moderate level of efficacy (mice [4]; intravenous): roughly 100 ×

SMILES: CC(=O)Nc1ccc(O)cc1 [acetaminophen, reference compound]
- dose dependence of the level of analgesia (mice [3]; mouse writhing assay): not dose dependent
